Measurements from patent US20230233425A1, “USE OF VOLATILE COMPOSITIONS TO LIMIT OR ELIMINATE THE PERCEPTION OF MALODOR” (Firmenich SA, priority 2017, published 2023).
Like-named read-outs stand apart in the source and are kept apart here. Marks after values point to notes of the source that are not given here.

Tests used:
[1] = tested on: geonol malodor (earthy/moss odor) perception; test: Sensory evaluation of geonol earthy/moss odor in iso-intense binary mixtures (glass jars); type: in vivo, human; conditions: iso-intense binary mixture
From the text: (§1) Sensory Evaluation: Five 16 oz glass jars containing either REF (geonol only), geonol only control, antagonist only, mixture of geonol and isointense antagonist, or mixture of geonol and low intensity antagonist were presented to the panelists (last four samples were randomized across panelists). The panelists were asked to familiarize themselves with the earthy/moss odor quality from the REF jar first, then rate the pleasantness, earthy/moss odor intensity and overall odor intensity of the next four samples on a 0-10 linear scale. The inter-stimulus interval between the samples was two minutes to avoid adaptation.

[2] = tested on: 1-octen-3-ol mushroom/earthy/fungal odor perception; test: Human sensory performance of test compounds with and without 1-octen-3-ol; type: in vivo; conditions: for % Mushroom/Earthy/Fungal Odor: Test Compound Only
[3] = tested on: OR2W1 or the OR1A1 olfactory receptor; test: 1-octen-3-ol olfactory receptor antagonist cell-based dose-response vs 1-octen-3-ol EC80; conditions: for IC50: 1-octen-3-ol at EC80; for % Inhibition: maximum inhibition normalized to baseline agonist activity
From the text: Each cell line was screened with a volatile compound library for their inhibitory properties and potential 1-octen-3-ol smell inhibition.
Single concentration monitoring of the 1-octen-3-ol induced cell activity in the presence or absence of a test compound allowed for the identification of compounds with a putative suppression or inhibitory effect.

[4] = tested on: geonol earthy/moss odor perception; test: Human sensory performance of test compounds with and without geonol; type: in vivo; conditions: for % Earthy/Moss Odor: Test Compound Only
From the text: as §1, with “adaptation. […]” for “adaptation.”
The results are shown in Tables 16 and 17, and FIGS. 3 to 5.

[5] = tested on: OR11A1, or the OR2M3 olfactory receptor; test: Geonol olfactory receptor antagonist cell-based screening, inhibitory dose-response vs geonol EC80; parameters: species or system human; conditions: geonol at EC80; for IC50: read-out: IC50
Olfr739 = Olfr739 (Mus musculus, UniProt E9Q1P0); test: Indole antagonist dose-response, cAMP HTRF in HEK293T, vs indole EC80; type: cell-based
Protocol: (§2) Functional dose-response experiments were performed to identify compounds capable of antagonizing indole-sensitive receptors previously identified (U.S. Pat. No. 9,914,760 B2). Using a cell-based assay, mouse receptor Olfr738, Olfr739, Olfr740, Olfr741, 0fr742, Olfr743, Olfr744, Olfr746, Olfr748 and Olfr749 were tested in an HEK293T cell line wherein the endogenous RTP1 gene has been activated and the odorant receptor chaperone was expressed (described in WO2016201153A1). The receptor genes were tagged with a Flag-Rho tag combination. Receptor genes were co-transfected with the canonical olfactory human G-protein alpha subunit Golf gene. Co-expression of the human Golf activates the Gs transduction pathway that leads to an internal cAMP increase upon binding to the appropriate ligand (indole here). Odorant-induced activity was detected by measuring the cAMP increase in the cytosol using an HTRF based kit (CisBio, cAMP dynamic 2 kit, cat. 62AM4PEJ). The receptors were exposed to binary mixtures of increasing concentrations of the test compounds in the presence of a potent activation concentration of indole (EC80) for each receptor. […] All the compounds listed decreased the indole induced activity of at least one receptor.

Olfr738 = Olfr738 (Mus musculus, UniProt L7N1X7); test: as above; type: cell-based; conditions: vs indole EC80; for IC50: Table 22, first listing (r7-r45), read-out: Olfr738 IC50
Protocol: (§3) Using a cell-based assay, mouse receptor Olfr738, Olfr739, Olfr740, Olfr741, 0fr742, Olfr743, Olfr744, Olfr746, Olfr748 and Olfr749 were tested in an HEK293T cell line wherein the endogenous RTP1 gene has been activated and the odorant receptor chaperone was expressed (described in WO2016201153A1). The receptor genes were tagged with a Flag-Rho tag combination. Receptor genes were co-transfected with the canonical olfactory human G-protein alpha subunit Golf gene. Co-expression of the human Golf activates the Gs transduction pathway that leads to an internal cAMP increase upon binding to the appropriate ligand (indole here). Odorant-induced activity was detected by measuring the cAMP increase in the cytosol using an HTRF based kit (CisBio, cAMP dynamic 2 kit, cat. 62AM4PEJ).

Olfr740 = Olfr740 (Mus musculus, UniProt E9PV79); test: as above; type: cell-based; conditions: vs indole EC80; for Emax: HEK-293T, read-out: Olfr740 % Inhibition; for IC50: Table 22, first listing (r7-r45), read-out: Olfr740 IC50
Protocol: as §3

Olfr741 = Olfr741 (Mus musculus, UniProt L7N1Y5); test: as above; type: cell-based
Protocol: as §3

Olfr742 = Olfr742 (Mus musculus, UniProt A2RTP5); test: as above; type: cell-based; conditions: vs indole EC80; for Emax: HEK-293T, read-out: Olfr742 % Inhibition
Protocol: as §3

Olfr749 = biological target: T1, Olfr749 (Mus musculus, UniProt E9Q438); test: as above; type: cell-based; conditions: Table 23
T1 construct: Flag; Rho tag; expressed in transfected cells
T1 sequence (E9Q438 1-313): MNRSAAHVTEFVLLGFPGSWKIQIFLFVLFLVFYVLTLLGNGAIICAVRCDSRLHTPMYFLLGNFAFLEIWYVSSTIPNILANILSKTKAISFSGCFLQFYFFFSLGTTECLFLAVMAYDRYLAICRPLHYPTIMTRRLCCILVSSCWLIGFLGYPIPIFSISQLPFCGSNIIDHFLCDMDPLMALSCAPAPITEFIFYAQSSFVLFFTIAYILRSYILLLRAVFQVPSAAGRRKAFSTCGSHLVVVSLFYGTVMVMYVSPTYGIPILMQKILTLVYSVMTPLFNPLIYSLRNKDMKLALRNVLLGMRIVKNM
Protocol: as §2

[6] = biological target: T2, OR51E1 olfactory receptor (Homo sapiens, UniProt Q8TCB6); test: Butyric acid olfactory receptor antagonist cell-based dose-response vs butyric acid EC80; conditions: butyric acid at EC80; Table 5
T2 construct: expressed in transfected cells
T2 sequence (Q8TCB6 1-318): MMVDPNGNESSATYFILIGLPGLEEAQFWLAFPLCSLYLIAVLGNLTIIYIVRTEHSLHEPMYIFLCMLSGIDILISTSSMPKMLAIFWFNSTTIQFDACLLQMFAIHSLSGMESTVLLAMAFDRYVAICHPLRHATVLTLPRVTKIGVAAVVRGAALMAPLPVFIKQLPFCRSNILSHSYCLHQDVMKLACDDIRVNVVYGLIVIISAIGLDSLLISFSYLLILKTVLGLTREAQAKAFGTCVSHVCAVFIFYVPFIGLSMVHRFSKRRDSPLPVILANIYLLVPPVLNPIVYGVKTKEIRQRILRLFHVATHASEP

Olfr744 = biological target: T3, Olfr744 (Mus musculus, UniProt Q7TRM0); test: Indole antagonist dose-response, cAMP HTRF in HEK293T, vs indole EC80; type: cell-based; conditions: Table 23
T3 construct: Flag; Rho tag; expressed in transfected cells
T3 sequence (Q7TRM0 1-323): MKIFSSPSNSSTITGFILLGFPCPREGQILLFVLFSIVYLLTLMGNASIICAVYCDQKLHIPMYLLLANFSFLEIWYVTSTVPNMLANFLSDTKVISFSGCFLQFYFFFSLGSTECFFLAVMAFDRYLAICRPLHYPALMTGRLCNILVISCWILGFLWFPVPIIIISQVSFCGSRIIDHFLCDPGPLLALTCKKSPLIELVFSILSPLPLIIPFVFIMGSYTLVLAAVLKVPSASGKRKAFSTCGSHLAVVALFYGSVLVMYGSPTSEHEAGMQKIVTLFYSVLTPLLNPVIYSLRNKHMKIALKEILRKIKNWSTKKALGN
Protocol: as §2

[7] = tested on: 1-octen-3-ol receptors OR2W1, Olfr93, Olfr120, Olfr398; test: Antagonists of 1-octen-3-ol receptors (Example 11); type: cell-based, mouse and human; parameters: Inhibition(%): concentration or dose not given beside the values; conditions: Table 19
[8] = Table 22, second listing of the same compounds

Olfr741, sequence (L7N1Y5 entry or part of it): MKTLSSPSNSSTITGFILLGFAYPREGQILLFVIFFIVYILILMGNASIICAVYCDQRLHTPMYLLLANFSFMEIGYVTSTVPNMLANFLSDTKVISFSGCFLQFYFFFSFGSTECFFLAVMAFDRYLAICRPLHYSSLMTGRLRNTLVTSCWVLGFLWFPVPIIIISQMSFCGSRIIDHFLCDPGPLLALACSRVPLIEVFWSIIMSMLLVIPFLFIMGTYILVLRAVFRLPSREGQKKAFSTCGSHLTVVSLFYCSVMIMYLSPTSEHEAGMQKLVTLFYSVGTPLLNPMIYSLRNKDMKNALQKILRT
Olfr742, sequence (A2RTP5 entry or part of it): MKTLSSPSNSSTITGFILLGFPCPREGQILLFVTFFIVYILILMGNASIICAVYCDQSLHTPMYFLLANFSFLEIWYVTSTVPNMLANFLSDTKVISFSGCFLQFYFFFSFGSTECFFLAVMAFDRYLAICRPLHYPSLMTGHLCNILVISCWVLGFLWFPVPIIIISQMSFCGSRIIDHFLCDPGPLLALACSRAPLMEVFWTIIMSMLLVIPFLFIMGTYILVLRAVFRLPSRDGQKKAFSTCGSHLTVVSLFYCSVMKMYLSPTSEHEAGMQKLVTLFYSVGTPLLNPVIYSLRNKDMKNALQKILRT
Olfr738, sequence (L7N1X7 entry or part of it): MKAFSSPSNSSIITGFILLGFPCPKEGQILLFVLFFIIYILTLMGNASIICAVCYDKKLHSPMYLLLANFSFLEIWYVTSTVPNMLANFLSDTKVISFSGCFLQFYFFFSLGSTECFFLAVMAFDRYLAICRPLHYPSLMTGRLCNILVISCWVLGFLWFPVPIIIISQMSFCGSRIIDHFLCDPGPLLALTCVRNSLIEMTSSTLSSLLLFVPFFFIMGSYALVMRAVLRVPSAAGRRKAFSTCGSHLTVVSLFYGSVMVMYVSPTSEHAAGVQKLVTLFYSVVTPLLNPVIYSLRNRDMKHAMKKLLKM
Olfr739, sequence (E9Q1P0 entry or part of it): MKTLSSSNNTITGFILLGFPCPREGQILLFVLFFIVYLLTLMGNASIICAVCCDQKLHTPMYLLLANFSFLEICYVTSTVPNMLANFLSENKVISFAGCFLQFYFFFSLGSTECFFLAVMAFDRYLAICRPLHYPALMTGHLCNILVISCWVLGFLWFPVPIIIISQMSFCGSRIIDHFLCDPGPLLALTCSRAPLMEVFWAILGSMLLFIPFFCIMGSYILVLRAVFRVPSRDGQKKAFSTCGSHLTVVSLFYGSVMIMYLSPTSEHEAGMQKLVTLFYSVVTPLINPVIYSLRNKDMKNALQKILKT
Olfr740, sequence (E9PV79 entry or part of it): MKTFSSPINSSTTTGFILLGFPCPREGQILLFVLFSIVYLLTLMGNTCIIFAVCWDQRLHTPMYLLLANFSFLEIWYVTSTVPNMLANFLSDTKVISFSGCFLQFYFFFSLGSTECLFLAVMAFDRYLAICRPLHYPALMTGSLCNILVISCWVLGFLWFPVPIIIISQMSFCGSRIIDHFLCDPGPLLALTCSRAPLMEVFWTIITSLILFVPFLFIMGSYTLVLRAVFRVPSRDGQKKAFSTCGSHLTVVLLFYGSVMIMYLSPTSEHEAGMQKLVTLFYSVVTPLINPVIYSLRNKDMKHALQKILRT

Molecule | IC50 [5] [µM] | % Remaining in human sensory tests [1] | % Mushroom/Earthy/Fungal Odor [2] [%] | % Earthy/Moss Odor [4] [%] | % Inhibition [5] [%] | further results
CC1(C)CCCC2(C)CC(=O)CCC12 (racemic) |  |  |  |  |  | Olfr739 % Inhibition (Olfr739; [8]): 107.89%; Olfr738 % Inhibition (Olfr738; [8]): 123.10%; Emax (Olfr740; [8]): 81.4%; IC50 (Olfr741; [8]): 106 µM; Olfr741 % Inhibition (Olfr741; [8]): 65.60%; Emax (Olfr742; [8]): 97%
C/C=C/C(=O)C1C(C)=CCCC1(C)C (racemic) [(+−)-(2E)-1-(2,6,6-trimethyl-2-cyclohexen-1-yl)-2-buten-1-one] |  |  |  |  |  | IC50 (Olfr749): 156 µM; Olfr749 % Inhibition (Olfr749): 47.86%; IC50 [6]: 50.5 µM; IC50 (Olfr738): 99.8 µM; Olfr738 % Inhibition (Olfr738; Table 22, first listing): 12.19%; Emax (Olfr740; Table 22, first listing): 115%; IC50 (Olfr740): 137 µM; IC50 (Olfr741; Table 22, first listing): 110 µM; Olfr741 % Inhibition (Olfr741; Table 22, first listing): 75.65%; Emax (Olfr742; Table 22, first listing): 113%; Emax (Olfr742; [8]): 47.9%; IC50 (Olfr742; Table 22, first listing (r7-r45), read-out: Olfr742 IC50): 95.4 µM
CC(C)(C)c1ccccc1O [2-tertbutyl phenol] | 88 | 46* % |  | 41.30 | 100 | IC50 [3]: 37 µM; % Inhibition [3]: 100.34%
CC(C)(C)C1CCC(=O)CC1 [4-t-butylcyclohexanone] |  |  |  |  |  | Olfr739 % Inhibition (Olfr739; Table 22, first listing): 60.32%; IC50 (Olfr739; Table 22, first listing (r7-r45)): 69.9 µM; Olfr739 % Inhibition (Olfr739; [8]): 148.19%; IC50 (Olfr744): 175 µM; Olfr744 % Inhibition (Olfr744): 148.19%; IC50 (Olfr738): 43.1 µM; Olfr738 % Inhibition (Olfr738; Table 22, first listing): 52.44%; Emax (Olfr740; Table 22, first listing): 213%; IC50 (Olfr740): 10.6 µM
CC(=O)OC(c1ccccc1)C(Cl)(Cl)Cl (centres unmarked) [(2,2,2-trichloro-1-phenylethyl) acetate] |  | 61% | 30.00 | 38.60 |  | 
Cc1ccc2c(c1)CC(C)(CO)C2 (centres unmarked) [(2,5-dimethyl-1,3-dihydroinden-2-yl)methanol] |  | 37* % | 36.30 | 41.70 |  | 
CC=Cc1ccc(OCC)c(O)c1 [Compound 2-ethoxy-5-prop-1-enylphenol, 2-ethoxy-5-prop-1-enylphenol] | 111 | 34* % | 23.20 | 27.10 | 33 | 
O=C1CCC=CCCCCCCCCCC1 [cyclopentadec-4-en-1-one] | 61 | 47% | 25.80 | 49.90 | 45 | IC50 [7]: 57.8 µM; Inhibition(%) [7]: 130%

Further lines, with some results ahead:

IC50 [5] [µM] | Molecule | % Remaining in human sensory tests [1] | % Mushroom/Earthy/Fungal Odor [2] [%] | % Earthy/Moss Odor [4] [%] | % Inhibition [5] [%] | further results
81 | 1,4,8-trimethyl-13-oxabicyclo[10.1.0]trideca-4,8-diene; 1,5,8-trimethyl-13-oxabicyclo[10.1.0]trideca-4,8-diene | 85% | 30.20 | 43.30 | 50 | % Mushroom/Earthy/Fungal Odor Remaining ([2]; Low Dilution Test Compound + 1-octen-3-ol (0.15%)): 93.80%; % Mushroom/Earthy/Fungal Odor Remaining ([2]; Medium Dilution Test Compound + 1-octen-3-ol (0.15%)): 79.50%; IC50 [3]: 266 µM; % Inhibition [3]: 70.92%; % Earthy/Moss Odor Remaining ([4]; Low Dilution Test Compound + Geonol (0.1%)): 92.00%; % Earthy/Moss Odor Remaining ([4]; Medium Dilution Test Compound + Geonol (0.1%)): 91.50%
301 | CC=CC(=O)C1C(C)C=CCC1(C)C (centres unmarked) [1-(2,6,6-trimethyl-1-cyclohex-3-enyl)but-2-en-1-one] | 66* % | 24.00 | 31.80 | 10 | IC50 [6]: 210 µM
555 | CCCCCCc1ccc(C)nc1 [5-hexyl-2-methylpyridine 10% Citr, 5-hexyl-2-methylpyridine] | 37% |  | 46.40 |  | 
133 | CC(=O)CCC=C(C)CCC=C(C)C [6,10-dimethylundeca-5,9-dien-2-one] | 45* % |  | 52.80 | 50 | 
156 | CCC=CCCC=CC=O [nona-2,6-dienal] | 67% |  | 65.40 | 80 | 
107 | Cc1ccc(C(C)C)c(O)c1 [thymol, 5-Methyl-2-(propan-2-yl)phenol] | 53% |  | 54.70 | 100 | 
